# Measurements from patent US20230047816A1 (priority 2018, published 2023).
# Target: Recombinant full length human PFKFB3 (Homo sapiens, UniProt Q16875)
# Test: PFKFB3 kinase activity assay (ADP production, ADP-Glo)
# Settings: not given
# Sequence of Recombinant full length human PFKFB3 (Q16875 whole entry): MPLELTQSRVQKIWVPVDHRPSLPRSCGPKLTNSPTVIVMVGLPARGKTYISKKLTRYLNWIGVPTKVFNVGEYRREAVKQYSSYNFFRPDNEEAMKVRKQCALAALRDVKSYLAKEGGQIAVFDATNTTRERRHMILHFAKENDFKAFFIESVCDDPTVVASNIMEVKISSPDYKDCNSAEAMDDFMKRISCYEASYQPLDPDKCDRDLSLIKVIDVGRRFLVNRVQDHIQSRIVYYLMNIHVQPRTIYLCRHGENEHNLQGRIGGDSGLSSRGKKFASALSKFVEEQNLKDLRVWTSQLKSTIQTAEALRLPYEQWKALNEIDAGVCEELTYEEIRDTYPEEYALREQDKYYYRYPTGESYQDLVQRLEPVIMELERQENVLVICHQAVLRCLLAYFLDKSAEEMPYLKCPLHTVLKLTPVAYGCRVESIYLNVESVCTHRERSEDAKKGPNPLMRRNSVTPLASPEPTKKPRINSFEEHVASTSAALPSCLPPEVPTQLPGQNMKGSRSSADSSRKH
row,Structure (SMILES),IC50
1,COC(=O)c1cc(-c2ccccc2)c(OC)cc1N1C(=O)c2ccc(-c3c[nH]nn3)cc2C1=O [Example 38],5 to 20 µM
2,"Cc1cnc(N2C(=O)c3ccc(-c4c[nH]nn4)cc3C2=O)cc1-c1ccc(F)cc1F [Compound 90, 2-[4-(2,4-Difluoro-phenyl)-5-methyl-pyridin-2-yl]-5-(1H-[1,2,3]triazol-4-yl)-isoindole-1,3-dione]",2 to 5 µM
3,"COc1ccc(-c2c(C)sc(N3C(=O)c4ccc(C(=O)N[C@@H](Cc5ccc(O)cc5)C(=O)O)cc4C3=O)c2C#N)cc1 [Compound 136, (2S)-2-({2-[3-Cyano-4-(4-methoxyphenyl)-5-methyl-thiophen-2-yl]-1,3-dioxo-2,3-dihydro-1H-isoindole-5-carbonyl}-amino)-3-(4-hydroxyphenyl)propanoic acid]",2 to 5 µM
4,O=C(O)c1cc(-c2cnccn2)ccc1N1C(=O)c2ccc(-c3c[nH]nn3)cc2C1=O [Example 63],5 to 20 µM
5,"O=C1c2ccc(-c3c[nH]nn3)cc2C(=O)N1c1ccc(-c2ccccc2)cn1 [Compound 86, 2-(5-Phenylpyridin-2-yl)-5-(1H-[1,2,3]triazol-4-yl)-isoindole-1,3-dione]",< 20 µM
6,"COC(=O)c1ccc(-c2ccc(F)c(F)c2)cc1N1Cc2ccc(-c3c[nH]nn3)cc2C1=O [Compound 110, 3′,4′-Difluoro-3-[1-oxo-6-(1H-[1,2,3]triazol-4-yl)-1,3-dihydroisoindol-2-yl]biphenyl-4-carboxylic acid methyl ester]",< 20 µM

# Results, then the compound that gave them:
row,IC50,Structure (SMILES)
1,5 to 20 µM,"O=C(O)c1ccc(-c2ccc(F)c(F)c2)cc1N1Cc2ccc(CO)cc2C1=O [compound 158, 3′,4′-difluoro-3-(6-(hydroxymethyl)-1-oxoisoindolin-2-yl)biphenyl-4-carboxylic acid]"
2,2 to 5 µM,"NC(COC(=O)c1ccc(-c2ccccc2)cc1N1C(=O)c2ccc(-c3c[nH]nn3)cc2C1=O)C(=O)O (stereo in doubt) [Compound 73, 3-[1,3-Dioxo-5-(1H-[1,2,3]triazol-4-yl)-1,3-dihydroisoindol-2-yl]biphenyl-4-carboxylic acid (2S)-2-amino-2-carboxy-ethyl ester]"
3,< 0.5 µM,"O=C(O)c1cc(-c2ccccc2)ccc1N1C(=O)c2ccc(-c3c[nH]nn3)cc2C1=O [Example 31, 4-[1,3-Dioxo-5-(1H-[1,2,3]triazol-4-yl)-1,3-dihydroisoindol-2-yl]biphenyl-3-carboxylic Acid]"
4,< 0.5 µM,"O=C(O)c1cc(C(=O)Nc2cc(-c3ccc(Cl)cc3Cl)ccc2C(=O)O)c(C(=O)O)cc1O [Example 44, 2-({4-carboxy-2′,4′-dichloro-[1,1′-biphenyl]-3-yl}carbamoyl)-5-hydroxybenzene-1,4-dicarboxylic acid]"
5,0.5 to 2 µM,"O=C(O)c1ccc(-c2ccc(F)c(F)c2)cc1N1Cc2ccc(-c3nn[nH]c3C(=O)c3ccccc3)cc2C1=O [compound 162, 3-(6-(5-benzoyl-1H-1,2,3-triazol-4-yl)-1-oxoisoindolin-2-yl)-3′,4′-difluorobiphenyl-4-carboxylic acid]"
6,5 to 20 µM,"NC(=O)c1ccc2c(c1)C(=O)N(c1cc(-c3ccc(F)c(F)c3)ccc1C(=O)O)C2 [compound 160, 3-(6-carbamoyl-1-oxoisoindolin-2-yl)-3′,4′-difluorobiphenyl-4-carboxylic acid]"
7,< 0.5 µM,"CC1(C)CCN(c2ccc(C(=O)O)c(NC(=O)c3cc(C(=O)O)c(O)cc3C(=O)O)c2)CC1 [Example 56, 2-{[2-carboxy-5-(4,4-dimethylpiperidin-1-yl)phenyl]carbamoyl}-5-hydroxybenzene-1,4-dicarboxylic acid]"
8,< 0.5 µM,"CN1CCC(OC(=O)c2ccc(-c3ccc(Cl)cc3Cl)cc2NC(=O)c2cc(O)c(C(=O)O)cc2C(=O)O)C1 (stereo not shown) [Example 67, 4-[(2′,4′-dichloro-4-{[(1-methylpyrrolidin-3-yl)oxy]carbonyl}-[1,1′-biphenyl]-3-yl)carbamoyl]-6-hydroxybenzene-1,3-dicarboxylic acid]"
9,2 to 5 µM,"CN(C)S(=O)(=O)c1cc(-c2cnn[nH]2)c(Cl)cc1C(=O)Nc1cc(-c2ccc(F)c(F)c2)ccc1C(=O)O [Example 26, 3-(5-chloro-2-(N,N-dimethylsulfamoyl)-4-(1H-1,2,3-triazol-5-yl)benzamido)-3′,4′-difluoro-[1,1′-biphenyl]-4-carboxylic acid]"
10,< 20 µM,CCCCOC(=O)c1ccc2c(c1)C(=O)N(c1cc(OC)c(-c3ccccc3)cc1C(=O)OC)C2=O [Example 39]
11,< 0.5 µM,COc1ccc(-c2ccc(C(=O)O)c(N3C(=O)c4ccc(C(=O)O)cc4C3=O)c2)cc1 [Example 55]
12,< 20 µM,"COc1ccc(-c2c(C)sc(NC(=O)c3ccc(C(=O)O)cc3C(=O)NCCN(C)C)c2C#N)cc1 [Example 14, 4-{[3-cyano-4-(4-methoxyphenyl)-5-methylthiophen-2-yl]carbamoyl}-3-{[2-(dimethylamino)ethyl]carbamoyl}benzoic acid]"
13,< 0.5 µM,"CCOC(=O)c1ccc(-c2ccc(Cl)cc2Cl)cc1NC(=O)c1cc(O)c(C(=O)O)cc1C(=O)O [Example 55, 4-{[2′,4′-dichloro-4-(ethoxycarbonyl)-[1,1′-biphenyl]-3-yl]carbamoyl}-6-hydroxybenzene-1,3-dicarboxylic acid]"
14,2 to 5 µM,"COC(=O)c1cc(-c2ccccc2)ccc1N1C(=O)c2ccc(C(=O)O)cc2C1=O [Example 12, 2-(3-Methoxycarbonylbiphenyl-4-yl)-1,3-dioxo-2,3-dihydro-1H-isoindole-5-carboxylic acid]"
15,5 to 20 µM,"CN(C)CCOC(=O)c1ccc(-c2ccc(F)c(F)c2)cc1N1Cc2ccc(C(=O)O)cc2C1=O [Compound 120, 2-[4-(2-Dimethylamino-ethoxycarbonyl)-3′,4′-difluorobiphenyl-3-yl]-3-oxo-2,3-dihydro-1H-isoindole-5-carboxylic Acid]"
16,5 to 20 µM,"O=C(O)c1ccc(-c2ccc(F)c(F)c2)cc1N1Cc2ccc(-c3nn[nH]c3CO)cc2C1=O [compound 161, 3′,4′-difluoro-3-(6-(5-(hydroxymethyl)-1H-1,2,3-triazol-4-yl)-1-oxoisoindolin-2-yl)biphenyl-4-carboxylic acid]"

# System: neurons
# Test: Neuroprotection, protection factor, b-amyloid treatment
# Assay type: cell-based
# Settings: Treatment beta-amyloid, 24 hours
# Experimental: For NMDAR activation, neurons at 8 days in vitro were incubated 100 μM NMDA (plus 10 μM glycine) for 10 minutes. Neurons were then washed and further incubated in culture medium with the PFKFB3 inhibitors for 24 hours. For b-amyloid treatment, neurons at 8 days in vitro were incubated with […] b-amyloid plus the PFKFB3 inhibitors for 24 hours. The Protection factor was estimated as [AMC(beta-A)−AMC(DMSO)]/[AMC(beta-A)−AMC(Test article)] or [AMC(beta-A)−AMC(DMSO)]/[AMC(NMDA)−AMC(Test article)], where:
# AMC(DMSO)—% dead neuron in case of DMSO treatment
# AMC(beta—A)—% dead neuron in case of b—amyloid treatment
# AMC(Test article)—% dead neuron in case of PFKFB3 inhibitors treatment.
row,Structure (SMILES),Protection factors
1,"CC1(C)CCN(c2ccc(C(=O)O)c(NC(=O)c3cc(O)c(C(=O)O)cc3C(=O)O)c2)CC1 [4-{[2-carboxy-5-(4,4-dimethylpiperidin-1-yl)phenyl]carbamoyl}-6-hydroxybenzene-1,3-dicarboxylic acid]",4.33
2,CC(C)Cn1cc(C#N)c2cc(Oc3ccc(NC(=O)[C@@H]4CCCN4)cc3)ccc21 [(2S)-N-(4-{[3-cyano-1-(2-methylpropyl)-1H-indol-5-yl]oxy]phenyl)pyrrolidine-2-carboxamide],1.97
3,O=C(O)c1ccc(-c2ccc(F)c(F)c2)cc1N1C(=O)c2cc(Cl)c(-c3cn[nH]n3)cc2C1=O,1.15
4,"O=C(O)c1cc(C(=O)O)c(C(=O)Nc2cc(-c3ccc(Cl)cc3Cl)ccc2C(=O)O)cc1O [4-({4-carboxy-2′,4′-dichloro-[1,1′-biphenyl]-3-yl}carbamoyl)-6-hydroxybenzene-1,3-dicarboxylic acid]",8.07
5,"CC1(C)CCC(c2ccc(C(=O)O)c(NC(=O)c3cc(C(=O)O)c(O)cc3C(=O)O)c2)CC1 [2-{[2-carboxy-5-(4,4-dimethylcyclohexyl)phenyl]carbamoyl}-5-hydroxybenzene-1,4-dicarboxylic acid]",2.05
6,O=C(O)c1ccc(-c2ccc(F)c(F)c2)cc1N1Cc2ccc(-c3cn[nH]n3)cc2C1=O,12.17
